Results from patent US8350048B2, “Amide compounds as boosters of antivirals” (Janssen R&D Ireland, priority 2007, dated 2013).

Experiments:
[1] = tested on: wild-type HIV-1IIIB strain; test: Antiviral activity, MT4 LTR-EGFP cellular assay; assay type: cell-based; set-up: key to Antiviral activity IIIB (pEC50): pEC50 = -log10(EC50); conditions: wild-type HIV-1 IIIB, MT4 LTR-EGFP cells, three days after infection; for EC50: Human immunodeficiency virus 1, 72 h, read-out: Antiviral activity IIIB (pEC50) (converted)
Description: (§1) Assay 1 &2: Antiviral Activity/Toxicity
The compounds of the present invention were tested for antiviral activity in a cellular assay, which was performed according to the following procedure.
The human T-cell line MT4 is engineered with Green Fluorescent Protein (GFP) and an HIV-specific promoter, HIV-1 long terminal repeat (LTR). This cell line is designated MT4 LTR-EGFP, and can be used for the in vitro evaluation of anti-HIV activity of investigational compounds. In HIV-1 infected cells, the Tat protein is produced which upregulates the LTR promotor and finally leads to stimulation of the GFP reporter production, allowing measuring ongoing HIV-infection fluorometrically.
(§2) The ratio of CC50 to EC50 is defined as the selectivity index (SI) and is an indication of the selectivity of the anti-HIV activity of the inhibitor. The ultimate monitoring of HIV-1 infection and cytotoxicity is done using a scanning microscope. Image analysis allows very sensitive detection of viral infection. Measurements are done before cell necrosis, which usually takes place about five days after infection, in particular measurements are performed three days after infection.
(§3) A pEC50 value corresponds to −log10(EC50). A pCC50 value corresponds to −log10(CC50).

MT4 CMV-EGFP cells = test: Toxicity, mock-infected MT4 CMV-EGFP cells; assay type: cell-based, human
Description: as §1
(§4) Analogously, MT4 cells are engineered with GFP and the constitutional cytomegalovirus (CMV) promotor. […] Cytotoxic investigational compounds reduce GFP levels of mock-infected MT4 CMV-EGFP cells.
as §2, §3

[2] = Metabolic stability of test compounds (HLM15'); assay type: in vitro ADME, human; conditions: human liver microsomes 1 mg/ml, 5 μM test compound, 15 min; for recovery at 15 min, 5 μM: pH 7.4, read-out: Metabolic stability (HLM, % recovery after 15')
Description: Human liver tissue is rinsed in ice-cold 0.1 M Tris-HCl (pH 7.4) buffer to wash excess blood. Tissue is then blotted dry, weighed and chopped coarsely using surgical scissors. The tissue pieces are homogenized in 3 volumes of ice-cold 0.1 M phosphate buffer (pH 7.4) using either a Potter-S (Braun, Italy) equipped with a Teflon pestle or a Sorvall Omni-Mix homogenizer, for 7×10 sec. In both cases, the vessel is kept in/on ice during the homogenization process. Tissue homogenates are centrifuged at 9000×g for 20 min at 4° C. using a Sorvall centrifuge or Beckman Ultracentrifuge. The resulting supernatant can be stored at −80° C. and is designated ‘S9’. The S9 fraction is centrifuged at 100,000×g for 60 min at 4° C. using a Beckman ultracentrifuge. The resulting supernatant is carefully aspirated, aliquoted and designated ‘cytosol’. The pellet is re-suspended in 0.1 M phosphate buffer (pH 7.4) in a final volume of 1 ml per 0.5 g original tissue weight and designated ‘microsomes’. All sub-cellular fractions are aliquoted, immediately frozen in liquid nitrogen and stored at −80° C. until use.
Heat-inactivated (10 min at 95° C.) ‘S9’ or microsomes were used for blank experiments. […] The reaction was incubated for 0 or 15 min. Next, the reaction was stopped by addition of 2 volumes of DMSO (or acetonitrile). Samples were centrifuged (10 min, 900×g) and analyzed by LC-MS.

CYP3A4 [3] = target: T1, CYP3A4 (Homo sapiens, UniProt P08684); test: CYP450 inhibition CDNA-CYP3A4-BFC; conditions: for Cyp450 inhibition: CDNA-CYP3A4-BFC (% inhibition): 10 μM test compound, substrate BFC 150 μM, 30 min
T1 sequence (P08684 whole entry): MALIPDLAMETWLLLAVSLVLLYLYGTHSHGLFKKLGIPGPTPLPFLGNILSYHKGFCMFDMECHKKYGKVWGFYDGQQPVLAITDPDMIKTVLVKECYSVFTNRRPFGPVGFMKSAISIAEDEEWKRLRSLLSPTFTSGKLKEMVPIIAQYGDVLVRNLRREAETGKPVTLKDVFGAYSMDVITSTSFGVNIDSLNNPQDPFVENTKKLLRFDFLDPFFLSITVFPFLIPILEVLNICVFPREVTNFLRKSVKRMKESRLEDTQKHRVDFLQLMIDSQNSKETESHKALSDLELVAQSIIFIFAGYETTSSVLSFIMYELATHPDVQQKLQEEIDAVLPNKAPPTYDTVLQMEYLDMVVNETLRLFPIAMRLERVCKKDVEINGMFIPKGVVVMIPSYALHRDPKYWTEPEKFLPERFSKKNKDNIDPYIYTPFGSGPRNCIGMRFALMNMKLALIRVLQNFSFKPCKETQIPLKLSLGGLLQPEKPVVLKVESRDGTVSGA
Description: (§5) Assay 4: CYP450 Inhibition

CYP3A4 [4] = target: T1, CYP3A4; test: CYP450 inhibition CDNA-CYP3A4-BQ; conditions: for Cyp450 inhibition: CDNA-CYP3A4-BQ (% inhibition): 10 μM test compound, substrate BQ 60 μM, 30 min
Description: as §5

CYP2C9 = CYP2C9 (Homo sapiens, UniProt P11712); test: in vitro; conditions: for inhibition at 30 min, 10 μM: human, pH 7.4
Sequence of CYP2C9 (P11712 whole entry): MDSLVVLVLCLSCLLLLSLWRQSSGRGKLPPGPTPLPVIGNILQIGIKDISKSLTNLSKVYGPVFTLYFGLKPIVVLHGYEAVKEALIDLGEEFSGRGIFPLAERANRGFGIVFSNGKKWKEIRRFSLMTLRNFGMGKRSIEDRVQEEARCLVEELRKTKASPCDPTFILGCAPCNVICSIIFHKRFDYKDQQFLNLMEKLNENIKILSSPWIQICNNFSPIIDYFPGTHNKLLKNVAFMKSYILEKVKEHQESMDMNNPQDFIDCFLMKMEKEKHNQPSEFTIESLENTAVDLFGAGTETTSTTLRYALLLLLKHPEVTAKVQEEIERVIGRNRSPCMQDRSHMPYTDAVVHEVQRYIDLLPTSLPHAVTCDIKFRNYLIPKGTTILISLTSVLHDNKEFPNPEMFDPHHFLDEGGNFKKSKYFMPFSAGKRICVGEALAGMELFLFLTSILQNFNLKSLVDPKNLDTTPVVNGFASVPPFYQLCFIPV
Description: as §5

CYP2C19 [5] = target: T2, CYP2C19 (Homo sapiens, UniProt P33261); test: CYP450 inhibition CDNA-CYP2C19-CEC; conditions: 10 μM test compound, substrate CEC 25 μM, 30 min
T2 sequence (P33261 whole entry): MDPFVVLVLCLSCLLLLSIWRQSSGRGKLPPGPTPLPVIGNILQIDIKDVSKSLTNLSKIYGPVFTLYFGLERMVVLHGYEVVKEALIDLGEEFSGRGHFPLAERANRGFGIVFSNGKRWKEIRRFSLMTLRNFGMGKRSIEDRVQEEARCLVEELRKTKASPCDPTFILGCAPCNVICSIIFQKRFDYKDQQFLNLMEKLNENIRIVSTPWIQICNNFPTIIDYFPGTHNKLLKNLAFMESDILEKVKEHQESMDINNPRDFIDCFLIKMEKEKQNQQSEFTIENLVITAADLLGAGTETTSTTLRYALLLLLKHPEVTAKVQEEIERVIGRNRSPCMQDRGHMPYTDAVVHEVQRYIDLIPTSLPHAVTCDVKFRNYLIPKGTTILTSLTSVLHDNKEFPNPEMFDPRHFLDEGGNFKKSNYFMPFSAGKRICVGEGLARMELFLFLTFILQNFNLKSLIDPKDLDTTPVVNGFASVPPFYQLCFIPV

[6] = Toxicity, mock-infected MT4 CMV-EGFP cells; assay type: cell-based, human; conditions: human
Description: as §1, §4, §2, §3

CYP3A4 [7] = target: T1, CYP3A4; test: in vitro; conditions: human, pH 7.4
Description: as §5

CYP2D6 = CYP2D6 (Homo sapiens, UniProt P10635); test: in vitro; conditions: pH 7.4
Sequence of CYP2D6 (P10635 whole entry): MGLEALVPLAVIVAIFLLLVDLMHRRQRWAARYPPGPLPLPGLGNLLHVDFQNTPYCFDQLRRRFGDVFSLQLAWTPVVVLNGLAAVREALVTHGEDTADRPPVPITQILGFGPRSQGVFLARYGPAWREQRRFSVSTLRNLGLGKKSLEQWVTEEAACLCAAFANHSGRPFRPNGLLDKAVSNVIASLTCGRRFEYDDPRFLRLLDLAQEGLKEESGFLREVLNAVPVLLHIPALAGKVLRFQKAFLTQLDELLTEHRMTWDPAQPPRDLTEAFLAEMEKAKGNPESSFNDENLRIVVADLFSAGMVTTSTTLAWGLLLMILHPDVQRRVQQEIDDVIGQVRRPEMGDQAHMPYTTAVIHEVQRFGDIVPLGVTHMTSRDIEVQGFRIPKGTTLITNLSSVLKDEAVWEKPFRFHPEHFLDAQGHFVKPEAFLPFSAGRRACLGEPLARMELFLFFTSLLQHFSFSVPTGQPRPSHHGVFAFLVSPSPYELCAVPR
Description: (§6) Inhibition of the metabolism of test compounds by different CYP P450 isoenzymes was determined using E. coli expressed proteins (3A4, 2C9, 2D6, 1A2, and 2C19) that convert their specific substrates into a fluorescent molecule (Table 6). This fluorescent molecule was measured using a fluorescent plate reader (Victor2 (Wallac) or Fluoroskan (Labsystems)). […] CYP P450 enzymes were prepared in house or commercially bought and stored at −80° C.
(§7) The assay was performed in black 96 well Costar plates. Test compounds were added to a CYP P450 enzyme solution in the presence of an NADPH generating system. After 5 min of preincubation at 37° C., the freshly prepared, phosphate buffered (pH 7.4) substrate solution was added. Known CYP P450 inhibitors were used as positive controls, negative controls were run without CYP P450 enzyme. […] Reaction mixtures were incubated at 37° C. for 30 min (CYP3A4-BFC), 30 min (CYP3A4-BQ), 10 min (CYP3A4-DBF), 15 min (CYP1A2-CEC), 30 min (CYP2C9-MFC, CYP2C19-CEC), or 45 min (CYP2D6-AMMC), respectively. Then, the reaction was stopped by the addition of 200 μl acetonitrile, and the fluorescent signal was detected.
(§8) Calculation of CYP P450 isoenzyme inhibition (% inh.):
(§9) % activity=(100/(average positive control−average negative control))×(average sample−average negative control)

CYP1A2 = target: T3, CYP1A2 (Homo sapiens, UniProt P05177); test: in vitro; conditions: E. coli expressed CYP1A2, pH 7.4, probe CEC 5 μM
T3 sequence (P05177 1-516): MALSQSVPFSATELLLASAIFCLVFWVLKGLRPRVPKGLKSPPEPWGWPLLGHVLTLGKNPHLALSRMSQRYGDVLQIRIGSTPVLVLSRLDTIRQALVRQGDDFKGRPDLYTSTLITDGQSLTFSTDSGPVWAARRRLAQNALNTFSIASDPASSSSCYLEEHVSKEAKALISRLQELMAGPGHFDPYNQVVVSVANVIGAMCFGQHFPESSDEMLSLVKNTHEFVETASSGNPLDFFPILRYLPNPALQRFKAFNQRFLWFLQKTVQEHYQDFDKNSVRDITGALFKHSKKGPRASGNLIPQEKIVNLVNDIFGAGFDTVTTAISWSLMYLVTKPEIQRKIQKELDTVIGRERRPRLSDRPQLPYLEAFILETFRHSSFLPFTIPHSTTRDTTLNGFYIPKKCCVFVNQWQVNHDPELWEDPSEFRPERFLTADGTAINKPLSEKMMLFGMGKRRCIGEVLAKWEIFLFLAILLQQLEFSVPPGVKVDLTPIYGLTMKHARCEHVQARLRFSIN
Description: as §6, §7, §8, §9

CYP2C19 [8] = target: T2, CYP2C19; test: in vitro; conditions: E. coli expressed CYP2C19, pH 7.4, probe CEC 25 μM

Compound | Antiviral activity IIIB (pEC50) [1] | Metabolic stability (HLM, % recovery after 15') [2] [%] | Cyp450 inhibition: CDNA-CYP3A4-BFC (% inhibition) (CYP3A4 [3]) [%] | Cyp450 inhibition: CDNA-CYP3A4-BQ (% inhibition) (CYP3A4 [4]) [%] | Cyp450 inhibition: CDNA-CYP2C9-MFC (% inhibition) (CYP2C9) [%] | Cyp450 inhibition: CDNA-CYP2C19-CEC (% inhibition) (CYP2C19 [5]) [%] | inhibition at 30 min, 10 μM (CYP3A4 [3]; human, E. coli expressed CYP3A4, pH 7.4, probe BFC 150 μM) [%] | inhibition at 30 min, 10 μM (CYP3A4 [4]; human, E. coli expressed CYP3A4, pH 7.4, probe BQ 60 μM) [%] | inhibition at 10 min, 10 μM (CYP3A4 [7]) [%] | Toxicity MT4 (pCC50) (MT4 CMV-EGFP cells) | EC50 [1] [µM] | CC50 at 3 days ([6]; mock-infected MT4 CMV-EGFP cells, read-out: Toxicity MT4 (pCC50) (converted)) [µM] | recovery at 15 min, 5 μM [2] [%] | inhibition at 30 min, 10 μM (CYP2C9) [%] | inhibition at 45 min, 10 μM (CYP2D6) [%] | inhibition at 15 min, 10 μM (CYP1A2) [%] | inhibition at 30 min, 10 μM (CYP2C19 [8]) [%] | CC50 [6] [µM]
O=C(N[C@@H](Cc1ccccc1)[C@H](O)CN(CC1CCC(F)(F)CC1)C(=O)c1ccc2nc(N3CCCC3)oc2c1)OCc1cncs1 [Compound C47] | =4.53 | 78 | 95 | 85 | 98 | 96 |  |  |  | =4.38 |  |  |  |  |  |  |  | 
O=C(N[C@@H](Cc1ccccc1)[C@H](O)CN(CCN1CCOCC1)C(=O)c1ccc2nc(N3CCCC3)oc2c1)OCc1cncs1 [Compound C20] | <4.00 | 65 | 96 | 81 | 72 | 65 |  |  |  | <4.00 |  |  |  |  |  |  |  | 
CCN(C)c1nc2ccc(C(=O)N(CC(C)C)C[C@@H](O)[C@H](Cc3ccc(F)cc3)NC(=O)OCc3cncs3)cc2o1 [Compound C53, Thiazol-5-ylmethyl (2S,3R)-4-(2-(ethyl(methyl)amino)-N-isobutylbenzo[d]-oxazole-6-carboxamido)-1-(4-fluorophenyl)-3-hydroxybutan-2-ylcarbamate] |  |  |  |  |  |  |  |  |  |  | 46.8 |  | 71 | 96 | 61 | 0 | 95 | 50.1
CC(C)(O)CN(C[C@@H](O)[C@H](Cc1ccccc1)NC(=O)OCc1cncs1)C(=O)c1ccc2nc(N3CCCC3)oc2c1 [Compound C28] | <4.00 | 72 | 98 | 79 | 99 | 83 |  |  |  | <4.00 |  |  |  |  |  |  |  | 

Further lines, with some results ahead:

Antiviral activity IIIB (pEC50) [1] | Metabolic stability (HLM, % recovery after 15') [2] [%] | Cyp450 inhibition: CDNA-CYP3A4-BFC (% inhibition) (CYP3A4 [3]) [%] | Cyp450 inhibition: CDNA-CYP3A4-BQ (% inhibition) (CYP3A4 [4]) [%] | Cyp450 inhibition: CDNA-CYP2C9-MFC (% inhibition) (CYP2C9) [%] | Cyp450 inhibition: CDNA-CYP2C19-CEC (% inhibition) (CYP2C19 [5]) [%] | inhibition at 30 min, 10 μM (CYP3A4 [3]; human, E. coli expressed CYP3A4, pH 7.4, probe BFC 150 μM) [%] | inhibition at 30 min, 10 μM (CYP3A4 [4]; human, E. coli expressed CYP3A4, pH 7.4, probe BQ 60 μM) [%] | inhibition at 10 min, 10 μM (CYP3A4 [7]) [%] | Compound | Toxicity MT4 (pCC50) (MT4 CMV-EGFP cells) | EC50 [1] [µM] | CC50 at 3 days ([6]; mock-infected MT4 CMV-EGFP cells, read-out: Toxicity MT4 (pCC50) (converted)) [µM] | recovery at 15 min, 5 μM [2] [%] | inhibition at 30 min, 10 μM (CYP2C9) [%] | inhibition at 45 min, 10 μM (CYP2D6) [%] | inhibition at 15 min, 10 μM (CYP1A2) [%] | inhibition at 30 min, 10 μM (CYP2C19 [8]) [%] | CC50 [6] [µM]
 |  |  |  |  |  | 95 | 76 | 92 | CC(C)CN(C[C@@H](O)[C@H](Cc1ccccc1)NC(=O)OCc1cncs1)C(=O)c1ccc2ncoc2c1 [Compound C38, Thiazol-5-ylmethyl (2S,3R)-3-hydroxy-4-(N-isobutylbenzo[d]oxazole-6-carboxamido)-1-phenylbutan-2-ylcarbamate] |  | > 100 | > 100 | 67 | 93 | 77 | 7 | 81 | 
<4.00 | 78 |  |  |  | 92 |  |  |  | CC(C)CN(C[C@@H](O)[C@H](Cc1ccccc1)NC(=O)OCc1cncs1)C(=O)c1ccc2nc(N3CCCC3)oc2c1 [Compound C2] | <4.00 |  |  |  |  |  |  |  | 
